Marks after values point to notes of the source that are not given here.
Experiments:
renal cortical slices = conditions: cited from earlier work
[1] = system: isolated renal cortical cells (IRCC); test: Effect of antioxidant or biotransformation inhibitor pretreatment on TCNB cytotoxicity, LDH release in IRCC; conditions: for Effect of pretreatment on 3,4,5-TCNB cytotoxicity: 0.5 mM 3,4,5-TCNB, 30 min exposure; for Effect of pretreatment on 3,4,5-TCNB cytotoxicity / Effect of pretreatment on 2,3,4-TCNB cytotoxicity / Effect of pretreatment on 2,4,5-TCNB cytotoxicity / Effect of pretreatment on 2,4,6-TCNB cytotoxicity: IRCC; for Effect of pretreatment on 2,3,4-TCNB cytotoxicity: 1.0 mM 2,3,4-TCNB, 60 min exposure; for Effect of pretreatment on 2,4,5-TCNB cytotoxicity: 1.0 mM 2,4,5-TCNB; for Effect of pretreatment on 2,4,5-TCNB cytotoxicity / Effect of pretreatment on 2,4,6-TCNB cytotoxicity: 90 min exposure; for Effect of pretreatment on 2,4,6-TCNB cytotoxicity: 1.0 mM 2,4,6-TCNB; for % of lactate dehydrogenase release, PreTx: pretreatment compound alone, no TCNB; for % of lactate dehydrogenase release, PreTx / % of lactate dehydrogenase release, PreTx + TCNB: mean ± S.E., n = 4
Method: Untreated rats were anesthetized with pentobarbital (75 mg/kg, i.p.) and isolated renal cortical cells (IRCC) were obtained by using the collagenase perfusion method. Initial cell viability was determined by measuring trypan blue (2% w/v) exclusion and lactate dehydrogenase (LDH) release. […] IRCC were then exposed to various concentrations of a TCNB (0, 0.5, or 1.0 mM) for 15, 30, 60, 90, or 120 min. Following the incubation period, flasks were removed and placed on ice. Samples (0.5 mL) were taken for LDH release assays. Briefly, the samples were centrifuged (3000× g, 3 min), the was supernatant decanted and saved, and the pellet was disrupted with 1 mL of 10% Triton X-100 solution to release cellular LDH activity. LDH activity was then determined in each fraction (supernatant and pellet) as previously described using a kinetic assay based on the amount of NADH produced from NAD [57]. The LDH released was expressed as % of total (supernatant plus pellet).
Concentrations used in these experiments were 0.5 mM (3,4,5-TCNB) or 1.0 mM (2,3,4-, 2,4,5- and 2,4,6-TCNB). Incubation times with a TCNB added were 30 min (3,4,5-TCNB), 60 min (2,3,4-TCNB), or 90 min (2,4,5- and 2,4,6-TCNB). The pretreatment times and concentrations for all of the pretreatments are shown below in Table 5.

kidney = system: kidney; set-up: method as in PMID 2576285; conditions: 1.0 mmol/kg, intraperitoneally, cited from earlier work
[2] = system: isolated renal cortical cells (IRCC); test: Time and concentration cytotoxicity study, LDH release in IRCC; format: cell-based, male Fischer 344 rats
Method: To determine the comparative nephrotoxic potential of the four TCNBs in IRCC, a time and concentration response study was performed starting at 15 min and 0.5 or 1.0 mM and adjusting the times tested based on the results (Figure 2).

[3] = Table 1 experiments, 60 min incubation
[4] = Table 2 experiments, 90 min incubation
[5] = Table 3 experiments, 90 min incubation
[6] = pretreatment compound followed by 1.0 mM 2,3,4-TCNB, 60 min
[7] = pretreatment compound followed by 1.0 mM 2,4,5-TCNB, 90 min
[8] = pretreatment compound followed by 1.0 mM 2,4,6-TCNB, 90 min

With `O=[N+]([O-])c1ccc(Cl)c(Cl)c1` [3,4-DCNB, 3,4-dichloronitrobenzene] as the compound, how does the “Lowest concentration reducing pyruvate-stimulated gluconeogenesis and increasing LDH release” value (renal cortical slices) read?
The value was 0.5 mM.

What does the source list for `Cc1c(C)c2c(c(C)c1O)CC[C@@](C)(CCC[C@H](C)CCC[C@H](C)CCCC(C)C)O2` [α–Tocopherol, α-Tocopherol]?
Effect of pretreatment on 3,4,5-TCNB cytotoxicity [1]: attenuation of 3,4,5-TCNB cytotoxicity; Effect of pretreatment on 2,3,4-TCNB cytotoxicity [1]: attenuation of 2,3,4-TCNB cytotoxicity; Effect of pretreatment on 2,4,5-TCNB cytotoxicity [1]: attenuation of 2,4,5-TCNB cytotoxicity; Effect of pretreatment on 2,4,6-TCNB cytotoxicity [1]: not reduced; % of lactate dehydrogenase release, PreTx [1, 3]: 11± 1%; % of lactate dehydrogenase release, PreTx [1, 4]: 13 ± 1%; % of lactate dehydrogenase release, PreTx [1, 5]: 14 ± 1%; % of lactate dehydrogenase release, PreTx + TCNB [1, 6]: 12 ± 2 ^d %; % of lactate dehydrogenase release, PreTx + TCNB [1, 7]: 14 ± 3 ^d %; % of lactate dehydrogenase release, PreTx + TCNB [1, 8]: 25 ± 2 ^c %

Which results are given for `CCCCOCCOCCOCc1cc2c(cc1CCC)OCO2` [PiBx, Piperonyl butoxide]?
Effect of pretreatment on 3,4,5-TCNB cytotoxicity [1]: reduced; Effect of pretreatment on 2,3,4-TCNB cytotoxicity [1]: reduced; % of lactate dehydrogenase release, PreTx [1, 3]: 10 ± 1%; % of lactate dehydrogenase release, PreTx [1, 4]: 11 ± 2%; % of lactate dehydrogenase release, PreTx [1, 5]: 13 ± 1%; % of lactate dehydrogenase release, PreTx + TCNB [1, 6]: 12 ± 1 ^c,d %; % of lactate dehydrogenase release, PreTx + TCNB [1, 7]: 24 ± 3 ^c %; % of lactate dehydrogenase release, PreTx + TCNB [1, 8]: 22 ± 1 ^c %

Which “Effect of pretreatment on 3,4,5-TCNB cytotoxicity” value [1] does the source give for `O=C1O[C@H]([C@@H](O)CO)C(O)=C1O` [Ascorbate] here?
Its value is “attenuation of 3,4,5-TCNB cytotoxicity”.

What about the “Effect of pretreatment on 2,3,4-TCNB cytotoxicity” value [1] of the same compound?
Its value is “attenuation of 2,3,4-TCNB cytotoxicity”.

And the “Effect of pretreatment on 2,4,5-TCNB cytotoxicity” value [1]?
Its value is “attenuation of 2,4,5-TCNB cytotoxicity”.

And the “Effect of pretreatment on 2,4,6-TCNB cytotoxicity” value [1]?
Its value is “attenuation of 2,4,6-TCNB cytotoxicity”.

And the “% of lactate dehydrogenase release, PreTx” value [1, 3]?
The value was 12 ± 1%.

And the “% of lactate dehydrogenase release, PreTx” value [1, 4]?
The value was 12 ± 1%.

And the “% of lactate dehydrogenase release, PreTx + TCNB” value [1, 6]?
The value was 14 ± 1 ^d %.

What about the “% of lactate dehydrogenase release, PreTx + TCNB” value [1, 7] of the same compound?
The value was 16 ± 2 ^d %.

What about the “% of lactate dehydrogenase release, PreTx + TCNB” value [1, 8] of the same compound?
The value was 17 ± 2 ^c,d %.

With `Nc1ccc(S(=O)(=O)Nc2ccnn2-c2ccccc2)cc1` [sulfaphenazole, Sulfaphenazole] as the compound, how does the “Effect of pretreatment on 3,4,5-TCNB cytotoxicity” value [1] read?
The value was “at least some attenuation”.

For `O=[N+]([O-])c1ccc(Cl)cc1` [4-chloronitrobenzene], which Renal effects (kidney; 48 h after treatment) is on record?
Its Renal effects is “induced diuresis, increased N-acetyl-β-D-glucosaminidase excretion, and caused swelling of the kidney”.

And the “Urinary creatinine and blood urea nitrogen (BUN) concentrations” value (kidney)?
Its value is “not altered”.

What does the source list for `O=[N+]([O-])c1c(Cl)cc(Cl)cc1Cl` [2,4,6-TCNB]?
Cytotoxicity (LDH release), time and concentration response ([2]; 0.5 or 1.0 mM, 15-120 min, significant difference from DMSO control, p < 0.05): cytotoxicity was observed at 30 and 60 min (0.5 and 1.0 mM) but not at 15 min with either concentration; Concentration at which cytotoxicity was evident ([2]; as early as 30 min): 500 µM

Which “Effect of pretreatment on 3,4,5-TCNB cytotoxicity” value [1] does the source give for `N[C@@H](CCC(=O)N[C@@H](CS)C(=O)NCC(=O)O)C(=O)O` [Glutathione] here?
Its value is “attenuation of 3,4,5-TCNB cytotoxicity”.

What about the “Effect of pretreatment on 2,3,4-TCNB cytotoxicity” value [1] of the same compound?
Its value is “attenuation of 2,3,4-TCNB cytotoxicity”.

And the “Effect of pretreatment on 2,4,5-TCNB cytotoxicity” value [1]?
The value was “attenuation of 2,4,5-TCNB cytotoxicity”.

What about the “Effect of pretreatment on 2,4,6-TCNB cytotoxicity” value [1] of the same compound?
The value was “attenuation of 2,4,6-TCNB cytotoxicity”.

And the “% of lactate dehydrogenase release, PreTx” value [1, 3]?
The value was 13 ± 1%.

What about the “% of lactate dehydrogenase release, PreTx” value [1, 4] of the same compound?
The value was 15 ± 1%.

What about the “% of lactate dehydrogenase release, PreTx + TCNB” value [1, 6] of the same compound?
Its value is 14 ± 1 ^d %.

And the “% of lactate dehydrogenase release, PreTx + TCNB” value [1, 7]?
Its value is 17 ± 2 ^d %.

And the “% of lactate dehydrogenase release, PreTx + TCNB” value [1, 8]?
The value was 20 ± 1 ^c,d %.

For `S=P(N1CC1)(N1CC1)N1CC1` [thio-tepa, Thio-tepa], which “Effect of pretreatment on 3,4,5-TCNB cytotoxicity” value [1] is on record?
The value was “at least some attenuation”.

Which results are given for `CC(=O)N[C@@H](CS)C(=O)O` [NAC, N-acetyl-L-cysteine]?
Effect of pretreatment on 3,4,5-TCNB cytotoxicity [1]: attenuation of 3,4,5-TCNB cytotoxicity; Effect of pretreatment on 2,3,4-TCNB cytotoxicity [1]: attenuation of 2,3,4-TCNB cytotoxicity; Effect of pretreatment on 2,4,5-TCNB cytotoxicity [1]: attenuation of 2,4,5-TCNB cytotoxicity; Effect of pretreatment on 2,4,6-TCNB cytotoxicity [1]: not reduced; % of lactate dehydrogenase release, PreTx [1, 3]: 13± 1%; % of lactate dehydrogenase release, PreTx [1, 4]: 15 ± 1%; % of lactate dehydrogenase release, PreTx [1, 5]: 13 ± 1%; % of lactate dehydrogenase release, PreTx + TCNB [1, 6]: 16 ± 1 ^c,d %; % of lactate dehydrogenase release, PreTx + TCNB [1, 7]: 17 ± 1 ^d %; % of lactate dehydrogenase release, PreTx + TCNB [1, 8]: 23 ± 2 ^c %
